Data reported in patent US10351575B2, “Bicyclic urea, thiourea, guanidine and cyanoguanidine compounds useful for the treatment of pain” (Array BioPharma Inc., priority 2012, dated 2019).

Experiments:
Assay in all cases: KinaseProfiler off-target kinase profiling
Format in all cases: biochemical
Details in all cases: 10 μM, ATP near Km
Fer = Fer (Homo sapiens (Human), UniProt P16591)
Method: (§1) Representative compounds (Examples 12, 32, 26 and 2) of the invention were tested for off-target kinase activity at a concentration of 10 μM by Millipore, Inc. in their KinaseProfiler™ service against all the kinases available in their full kinase panel. Compounds were run in duplicate at a concentration of ATP near the Km for each individual kinase according to Millipore's specifications. The results are shown in Table B. Data are reported as percent of control (POC) and are the average of the two replicates.

Fes = Fes (Homo sapiens (Human), UniProt P07332)
Method: as §1

Rsk3 = Rsk3 (Homo sapiens (Human), UniProt Q15349)
Method: as §1

JNK1alpha1 = JNK1alpha1 (Homo sapiens (Human), UniProt P45983)
Method: as §1

IKKbeta = IKKbeta (Homo sapiens (Human), UniProt O14920)
Method: as §1

PKCgamma = PKCgamma (Homo sapiens (Human), UniProt P05129)
Method: as §1

GSK3alpha = GSK3alpha (Homo sapiens (Human), UniProt P49840)
Method: as §1

PASK = PASK (Homo sapiens (Human), UniProt Q96RG2)
Method: as §1

PDK1 = PDK1 (Homo sapiens (Human), UniProt O15530)
Method: as §1

ARK5 = ARK5 (Homo sapiens (Human), UniProt O60285)
Method: as §1

CK1gamma1 = CK1gamma1 (Homo sapiens (Human), UniProt Q9HCP0)
Method: as §1

IGF-1R Activated = IGF-1R Activated (Homo sapiens (Human), UniProt P08069)
Method: as §1

MRCKalpha = MRCKalpha (Homo sapiens (Human), UniProt Q5VT25)
Method: as §1

FGFR3 = FGFR3 (Homo sapiens (Human), UniProt P22607)
Method: as §1

EphA2 = EphA2 (Homo sapiens (Human), UniProt P29317)
Method: as §1

Rse = Rse (Homo sapiens (Human), UniProt Q06418)
Method: as §1

NEK6 = NEK6 (Homo sapiens (Human), UniProt Q9HC98)
Method: as §1

CAMK2g = CAMK2g (Homo sapiens (Human), UniProt Q13555)
Method: as §1

MELK = MELK (Homo sapiens (Human), UniProt Q14680)
Method: as §1

p38beta = p38beta (Homo sapiens (Human), UniProt Q15759)
Method: as §1

ERK2 = ERK2 (Homo sapiens (Human), UniProt P28482)
Method: as §1

AKT1 = AKT1 (Homo sapiens (Human), UniProt P31749)
Method: as §1

PRK2 = PRK2 (Homo sapiens (Human), UniProt Q16513)
Method: as §1

MINK = MINK (Homo sapiens (Human), UniProt Q8N4C8)
Method: as §1

Bmx = Bmx (Homo sapiens (Human), UniProt P51813)
Method: as §1

TEC Activated = TEC Activated (Homo sapiens (Human), UniProt P42680)
Method: as §1

FAK = FAK (Homo sapiens (Human), UniProt Q05397)
Method: as §1

CHK1 = CHK1 (Homo sapiens (Human), UniProt O14757)
Method: as §1

BrSK2 = BrSK2 (Homo sapiens (Human), UniProt Q8IWQ3)
Method: as §1

IGF-1R = IGF-1R (Homo sapiens (Human), UniProt P08069)
Method: as §1

TSSK2 = TSSK2 (Homo sapiens (Human), UniProt Q96PF2)
Method: as §1

Plk3 = Plk3 (Homo sapiens (Human), UniProt Q9H4B4)
Method: as §1

Ret = Ret (Homo sapiens (Human), UniProt P07949)
Method: as §1

c-RAF = c-RAF (Homo sapiens (Human), UniProt P04049, Y340D/Y341D)
Method: as §1

ROCK-I = ROCK-I (Homo sapiens (Human), UniProt Q13464)
Method: as §1

MARK1 = MARK1 (Homo sapiens (Human), UniProt Q9P0L2)
Method: as §1

Hck = Hck (Homo sapiens (Human), UniProt P08631)
Method: as §1

Rsk4 = Rsk4 (Homo sapiens (Human), UniProt Q9UK32)
Method: as §1

AKT2 = AKT2 (Homo sapiens (Human), UniProt P31751)
Method: as §1

AKT1, sequence (P31749 whole entry): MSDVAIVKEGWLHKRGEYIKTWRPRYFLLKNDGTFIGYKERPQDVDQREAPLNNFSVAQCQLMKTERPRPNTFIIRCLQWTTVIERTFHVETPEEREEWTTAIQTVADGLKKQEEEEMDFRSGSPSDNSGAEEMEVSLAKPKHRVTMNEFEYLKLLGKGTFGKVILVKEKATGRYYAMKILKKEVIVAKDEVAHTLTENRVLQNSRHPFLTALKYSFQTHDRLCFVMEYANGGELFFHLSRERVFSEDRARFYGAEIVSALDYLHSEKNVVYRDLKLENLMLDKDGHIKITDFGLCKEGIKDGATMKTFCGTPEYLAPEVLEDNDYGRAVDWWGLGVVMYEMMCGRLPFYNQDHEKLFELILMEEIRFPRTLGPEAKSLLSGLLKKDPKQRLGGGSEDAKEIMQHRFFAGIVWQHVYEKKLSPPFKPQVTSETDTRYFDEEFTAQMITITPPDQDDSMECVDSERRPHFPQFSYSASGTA
FAK, sequence (Q05397 whole entry): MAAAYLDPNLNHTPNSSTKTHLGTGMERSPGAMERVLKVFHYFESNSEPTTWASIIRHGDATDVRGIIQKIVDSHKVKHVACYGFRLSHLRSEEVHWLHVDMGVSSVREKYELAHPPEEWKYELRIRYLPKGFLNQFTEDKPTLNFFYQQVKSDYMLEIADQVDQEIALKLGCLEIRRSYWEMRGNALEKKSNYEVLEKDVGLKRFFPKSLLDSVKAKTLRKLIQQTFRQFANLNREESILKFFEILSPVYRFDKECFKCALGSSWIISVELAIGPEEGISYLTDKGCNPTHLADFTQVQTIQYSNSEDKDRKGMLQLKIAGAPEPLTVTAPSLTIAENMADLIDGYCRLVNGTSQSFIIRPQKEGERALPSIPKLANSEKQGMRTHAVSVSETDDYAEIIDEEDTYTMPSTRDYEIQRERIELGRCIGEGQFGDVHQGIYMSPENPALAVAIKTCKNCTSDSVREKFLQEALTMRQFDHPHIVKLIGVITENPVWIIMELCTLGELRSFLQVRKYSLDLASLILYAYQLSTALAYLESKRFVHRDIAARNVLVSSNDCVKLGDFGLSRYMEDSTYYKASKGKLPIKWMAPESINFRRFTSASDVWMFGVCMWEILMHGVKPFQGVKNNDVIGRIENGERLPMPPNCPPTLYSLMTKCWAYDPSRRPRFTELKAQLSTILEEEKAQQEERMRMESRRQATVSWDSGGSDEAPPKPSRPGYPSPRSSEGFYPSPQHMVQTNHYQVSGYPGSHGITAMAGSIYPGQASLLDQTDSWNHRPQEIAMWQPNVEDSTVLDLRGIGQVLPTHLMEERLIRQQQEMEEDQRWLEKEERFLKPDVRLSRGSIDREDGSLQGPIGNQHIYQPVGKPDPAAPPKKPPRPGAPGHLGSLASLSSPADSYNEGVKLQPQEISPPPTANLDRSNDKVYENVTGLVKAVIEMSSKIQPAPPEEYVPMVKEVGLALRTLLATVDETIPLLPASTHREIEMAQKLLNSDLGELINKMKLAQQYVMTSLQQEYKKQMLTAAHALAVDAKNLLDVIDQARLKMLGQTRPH
Bmx, sequence (P51813 whole entry): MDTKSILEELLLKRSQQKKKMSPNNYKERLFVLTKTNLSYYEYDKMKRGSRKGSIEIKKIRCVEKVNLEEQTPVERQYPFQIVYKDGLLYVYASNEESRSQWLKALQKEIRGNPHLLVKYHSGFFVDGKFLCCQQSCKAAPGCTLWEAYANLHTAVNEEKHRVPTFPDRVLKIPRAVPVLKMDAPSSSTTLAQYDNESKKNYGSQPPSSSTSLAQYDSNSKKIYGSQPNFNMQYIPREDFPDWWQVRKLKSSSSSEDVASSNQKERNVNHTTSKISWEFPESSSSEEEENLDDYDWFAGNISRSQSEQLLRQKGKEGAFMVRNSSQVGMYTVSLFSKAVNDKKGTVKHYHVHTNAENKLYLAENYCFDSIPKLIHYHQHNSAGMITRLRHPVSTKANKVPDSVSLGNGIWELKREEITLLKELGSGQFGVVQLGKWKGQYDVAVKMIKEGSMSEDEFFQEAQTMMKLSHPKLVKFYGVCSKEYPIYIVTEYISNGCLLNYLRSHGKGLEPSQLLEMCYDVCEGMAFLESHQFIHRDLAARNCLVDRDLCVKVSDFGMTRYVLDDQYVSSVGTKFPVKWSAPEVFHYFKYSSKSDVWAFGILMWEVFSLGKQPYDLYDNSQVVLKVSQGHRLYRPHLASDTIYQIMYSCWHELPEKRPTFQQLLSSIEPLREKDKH
Rse, sequence (Q06418 41-890): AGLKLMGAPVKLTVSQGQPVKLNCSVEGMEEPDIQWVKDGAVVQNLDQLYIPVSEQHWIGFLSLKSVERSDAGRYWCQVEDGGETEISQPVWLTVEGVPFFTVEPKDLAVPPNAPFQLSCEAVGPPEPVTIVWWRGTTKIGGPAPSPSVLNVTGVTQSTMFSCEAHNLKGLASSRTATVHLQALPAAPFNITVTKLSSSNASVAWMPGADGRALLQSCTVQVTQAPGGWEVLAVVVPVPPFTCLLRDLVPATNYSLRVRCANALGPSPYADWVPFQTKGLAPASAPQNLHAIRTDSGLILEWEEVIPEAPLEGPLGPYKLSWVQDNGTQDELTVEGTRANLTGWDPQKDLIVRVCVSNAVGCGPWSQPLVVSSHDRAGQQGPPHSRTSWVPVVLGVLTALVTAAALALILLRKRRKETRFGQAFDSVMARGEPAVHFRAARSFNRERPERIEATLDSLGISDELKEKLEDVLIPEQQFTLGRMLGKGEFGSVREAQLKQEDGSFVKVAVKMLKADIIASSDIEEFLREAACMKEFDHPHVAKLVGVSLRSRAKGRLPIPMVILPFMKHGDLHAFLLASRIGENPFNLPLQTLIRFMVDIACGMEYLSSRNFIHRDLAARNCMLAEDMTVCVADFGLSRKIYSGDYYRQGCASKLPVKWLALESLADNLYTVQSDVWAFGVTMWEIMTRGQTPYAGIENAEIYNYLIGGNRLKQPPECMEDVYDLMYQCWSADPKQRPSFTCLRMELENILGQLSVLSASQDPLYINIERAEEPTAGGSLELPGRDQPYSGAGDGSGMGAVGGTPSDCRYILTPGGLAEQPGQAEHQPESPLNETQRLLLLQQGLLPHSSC
IGF-1R Activated, sequence (P08069 959-1367 limits assumed): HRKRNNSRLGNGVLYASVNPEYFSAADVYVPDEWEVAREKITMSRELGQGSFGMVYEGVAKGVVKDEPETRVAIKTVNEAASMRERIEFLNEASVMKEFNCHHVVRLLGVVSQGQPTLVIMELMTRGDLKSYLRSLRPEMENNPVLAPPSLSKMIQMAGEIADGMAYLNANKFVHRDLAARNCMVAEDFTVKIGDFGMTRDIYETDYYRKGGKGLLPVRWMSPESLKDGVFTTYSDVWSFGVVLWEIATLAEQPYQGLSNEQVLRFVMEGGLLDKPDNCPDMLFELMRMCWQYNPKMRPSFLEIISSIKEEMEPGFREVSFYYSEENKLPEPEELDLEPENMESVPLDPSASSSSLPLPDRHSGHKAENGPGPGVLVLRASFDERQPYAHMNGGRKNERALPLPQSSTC
AKT2, sequence (P31751 whole entry): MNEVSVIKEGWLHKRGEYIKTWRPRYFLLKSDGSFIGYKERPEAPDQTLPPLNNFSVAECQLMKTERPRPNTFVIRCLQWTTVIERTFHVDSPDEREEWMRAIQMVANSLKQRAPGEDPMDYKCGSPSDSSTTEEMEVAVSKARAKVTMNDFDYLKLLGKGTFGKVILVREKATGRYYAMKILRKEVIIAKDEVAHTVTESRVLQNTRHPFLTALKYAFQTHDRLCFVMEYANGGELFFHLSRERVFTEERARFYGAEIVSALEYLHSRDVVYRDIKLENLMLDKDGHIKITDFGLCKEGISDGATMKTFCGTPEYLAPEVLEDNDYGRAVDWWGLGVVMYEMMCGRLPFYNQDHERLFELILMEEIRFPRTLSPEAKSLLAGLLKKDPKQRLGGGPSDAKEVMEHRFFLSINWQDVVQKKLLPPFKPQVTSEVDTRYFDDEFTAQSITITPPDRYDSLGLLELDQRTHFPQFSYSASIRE
ERK2, sequence (P28482 whole entry): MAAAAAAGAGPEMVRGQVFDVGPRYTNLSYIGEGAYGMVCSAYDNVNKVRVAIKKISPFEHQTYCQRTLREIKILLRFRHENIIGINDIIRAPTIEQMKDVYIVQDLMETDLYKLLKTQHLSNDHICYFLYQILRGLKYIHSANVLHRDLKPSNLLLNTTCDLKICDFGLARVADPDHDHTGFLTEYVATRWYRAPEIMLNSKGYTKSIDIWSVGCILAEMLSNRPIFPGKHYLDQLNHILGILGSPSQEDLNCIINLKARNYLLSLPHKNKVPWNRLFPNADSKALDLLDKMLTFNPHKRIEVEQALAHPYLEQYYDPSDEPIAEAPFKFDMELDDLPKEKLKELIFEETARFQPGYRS
Plk3, sequence (Q9H4B4 whole entry): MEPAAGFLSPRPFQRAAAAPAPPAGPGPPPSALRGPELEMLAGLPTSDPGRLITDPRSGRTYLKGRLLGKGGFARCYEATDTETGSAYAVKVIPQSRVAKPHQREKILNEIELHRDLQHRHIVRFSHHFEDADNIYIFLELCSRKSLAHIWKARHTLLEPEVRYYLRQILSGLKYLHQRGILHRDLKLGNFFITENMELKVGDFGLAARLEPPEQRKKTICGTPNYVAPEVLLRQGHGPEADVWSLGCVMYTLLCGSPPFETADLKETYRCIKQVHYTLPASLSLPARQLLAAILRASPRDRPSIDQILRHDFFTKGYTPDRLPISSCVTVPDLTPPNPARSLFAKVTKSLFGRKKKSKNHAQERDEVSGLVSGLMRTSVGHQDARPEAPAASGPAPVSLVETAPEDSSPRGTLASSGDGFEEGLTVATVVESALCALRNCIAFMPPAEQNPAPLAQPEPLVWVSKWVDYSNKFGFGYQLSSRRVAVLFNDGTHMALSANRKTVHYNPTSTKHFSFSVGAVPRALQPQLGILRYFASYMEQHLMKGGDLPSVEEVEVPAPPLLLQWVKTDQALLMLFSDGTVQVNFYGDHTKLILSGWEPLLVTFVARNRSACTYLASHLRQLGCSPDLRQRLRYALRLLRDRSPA

Avg. POC (Fer) [POC]	Avg. POC (Fes) [POC]	Avg. POC (Rsk3) [POC]	Avg. POC (JNK1alpha1) [POC]	Avg. POC (IKKbeta) [POC]	Avg. POC (PKCgamma) [POC]	Avg. POC (GSK3alpha) [POC]	Avg. POC (PASK) [POC]	Avg. POC (PDK1) [POC]	Avg. POC (ARK5) [POC]	Avg. POC (CK1gamma1) [POC]	Avg. POC (IGF-1R Activated) [POC]	Avg. POC (MRCKalpha) [POC]	Avg. POC (FGFR3) [POC]	Avg. POC (EphA2) [POC]	Avg. POC (Rse) [POC]	Avg. POC (NEK6) [POC]	Avg. POC (CAMK2g) [POC]	Avg. POC (MELK) [POC]	Avg. POC (p38beta) [POC]	SMILES	other results
110.5	129.5	106	94	116	102	123.5	143	120.5	109.5	116.5	95	127.5	113.5	129	109	125.5	107.5	142	113	Cc1c(-c2cnn(C)c2)nn(-c2ccccc2)c1NC(=O)N[C@H]1CCCc2ccccc21 [Example 2, (S)-1-(1′,4-dimethyl-1-phenyl-1H,1′H-3,4′-bipyrazol-5-yl)-3-(1,2,3,4-tetrahydronaphthalen-1-yl)urea]	Avg. POC (ERK2): 112.5 POC; Avg. POC (AKT1): 130.5 POC; Avg. POC (PRK2): 128 POC; Avg. POC (MINK): 110.5 POC; Avg. POC (Bmx): 113 POC; Avg. POC (TEC Activated): 153 POC; Avg. POC (FAK): 116.5 POC; Avg. POC (CHK1): 106.5 POC; Avg. POC (BrSK2): 139.5 POC; Avg. POC (IGF-1R): 18 POC; Avg. POC (TSSK2): 118.5 POC; Avg. POC (Plk3): 103 POC; Avg. POC (Ret): 118.5 POC; Avg. POC (c-RAF): 103.5 POC; Avg. POC (ROCK-I): 116.5 POC; Avg. POC (MARK1): 103 POC; Avg. POC (Hck): 85.5 POC; Avg. POC (Rsk4): 140 POC; Avg. POC (AKT2): 132 POC
100.5	110	90	109.5	102	104.5	119.5	125.5	105.5	99.5	98.5	102.5	139	109	113	106	121	107.5	67	115.5	Cc1c(-c2cnn(C)c2)nn(-c2ccccc2)c1NC(=O)NC1CCOc2cc(F)ccc21 (stereo not drawn) [Example 12, 1-(1′,4-dimethyl-1-phenyl-1H,1′H-[3,4′-bipyrazol]-5-yl)-3-(7-fluorochroman-4-yl)urea]	Avg. POC (ERK2): 106.5 POC; Avg. POC (AKT1): 105.5 POC; Avg. POC (PRK2): 97.5 POC; Avg. POC (MINK): 102 POC; Avg. POC (Bmx): 115.5 POC; Avg. POC (TEC Activated): 122.5 POC; Avg. POC (FAK): 104 POC; Avg. POC (CHK1): 99.5 POC; Avg. POC (BrSK2): 147 POC; Avg. POC (IGF-1R): 80 POC; Avg. POC (TSSK2): 139 POC; Avg. POC (Plk3): 115 POC; Avg. POC (Ret): 85 POC; Avg. POC (c-RAF): 96 POC; Avg. POC (ROCK-I): 116.5 POC; Avg. POC (MARK1): 104 POC; Avg. POC (Hck): 103.5 POC; Avg. POC (Rsk4): 101 POC; Avg. POC (AKT2): 127 POC
98	100.5	76.5	112	103.5	99	115.5	124.5	115	100.5	106.5	98	124.5	101	102	109.5	123.5	101	86	115.5	Cc1c(-c2ccc(=O)n(C)c2)nn(-c2ccccc2)c1NC(=O)NC1CN(CC(F)(F)F)Cc2ccccc21 (stereo not drawn) [Example 26, 1-(4-methyl-3-(1-methyl-6-oxo-1,6-dihydropyridin-3-yl)-1-phenyl-1H-pyrazol-5-yl)-3-(2-(2,2,2-trifluoroethyl)-1,2,3,4-tetrahydroisoquinolin-4-yl)urea]	Avg. POC (ERK2): 107.5 POC; Avg. POC (AKT1): 100 POC; Avg. POC (PRK2): 110.5 POC; Avg. POC (MINK): 126.5 POC; Avg. POC (Bmx): 109.5 POC; Avg. POC (TEC Activated): 113.5 POC; Avg. POC (FAK): 105 POC; Avg. POC (CHK1): 70.5 POC; Avg. POC (BrSK2): 118 POC; Avg. POC (IGF-1R): 60.5 POC; Avg. POC (TSSK2): 128 POC; Avg. POC (Plk3): 119 POC; Avg. POC (Ret): 106.5 POC; Avg. POC (c-RAF): 106.5 POC; Avg. POC (ROCK-I): 112 POC; Avg. POC (MARK1): 98.5 POC; Avg. POC (Hck): 91.5 POC; Avg. POC (Rsk4): 99.5 POC; Avg. POC (AKT2): 130 POC
85	112.5	92	118	105.5	104	112.5	137	101.5	118.5	111.5	112.5	131	107	118	105	123	105	98	119	COCc1ccc2c(c1)C(NC(=O)Nc1c(C)c(-c3cnn(C)c3)nn1-c1ccccc1)COC2 (stereo not drawn) [Example 32, 1-(1′,4-dimethyl-1-phenyl-1H,1′H-[3,4′-bipyrazol]-5-yl)-3-(6-(methoxymethyl)isochroman-4-yl)urea]	Avg. POC (ERK2): 128.5 POC; Avg. POC (AKT1): 92 POC; Avg. POC (PRK2): 99.5 POC; Avg. POC (MINK): 124 POC; Avg. POC (Bmx): 106.5 POC; Avg. POC (TEC Activated): 108.5 POC; Avg. POC (FAK): 116.5 POC; Avg. POC (CHK1): 103 POC; Avg. POC (BrSK2): 128.5 POC; Avg. POC (IGF-1R): 84.5 POC; Avg. POC (TSSK2): 120.5 POC; Avg. POC (Plk3): 103.5 POC; Avg. POC (Ret): 100.5 POC; Avg. POC (c-RAF): 101.5 POC; Avg. POC (ROCK-I): 103 POC; Avg. POC (MARK1): 98.5 POC; Avg. POC (Hck): 98 POC; Avg. POC (Rsk4): 95 POC; Avg. POC (AKT2): 121 POC
